Measurements from patent publication US10471030B2, “Immunomodulatory and differentiating function selective retinoid and rexinoid compounds in combination with immune modulators for cancer immunotherapy” (Io Therapeutics, Inc., priority 2017, dated 2019).

Key:
[1] = tested on: MM H929 cell lines and MM CD138+ primary cells; assay: mRNA expression of B cell and PC markers in MM cells, liquid or BM stroma co-culture (qRT-PCR); format: cell-based, human; settings: 1 μM for 5 days
Protocol: (§1) 24-well plates were coated with 0.1% gelatin in PBS for 30 min at 37° C. The gelatin solution was removed, and the stromal cells were cultured overnight at a density of 5×10^4 cells/well to obtain a confluent monolayer. At that time, MM cell lines or primary MM cells (1×10^5 in 2 ml) were added to the stroma cultures. The stroma cocultures were incubated at 37° C. in RPMI containing 10% FCS, L-glutamine, and P/S, with or without AGN194310 (1 μM for 5 days), R115866 (1 μM for 5 days), IRX5183 (1 μM for 5 days), or BTZ (2.5 nM for 48 hr).
Total RNA was extracted using the RNeasy Mini Kit (QIAGEN) according to the manufacturer's instructions. cDNA was synthesized by reverse transcription using the iScript cDNA Synthesis Kit (Bio-Rad). qRT-PCR was performed with iTaq SYBR Green Supermix (Bio-Rad) using sequence specific primers. Gene expression was normalized to GAPDH, and relative quantification was calculated using ΔΔCt. All experiments were performed in duplicate and run on the Bio-Rad CFX96 machine.
The BM microenvironment (also called “niche”) limits PC differentiation by modulating retinoid signaling. A population of MM progenitors, phenotypically similar to B cells, is intrinsically resistant to BTZ and contributes to MRD and relapse. To investigate whether the BM niche plays a role in determining the phenotype of MM cells, the mRNA expression of B cell and PC markers in MM H929 cell lines (FIGS. 3A-D) and MM CD138+ primary cells (FIGS. 3E-H) was analyzed following co-culture with mouse BM stroma using human-specific primers. […] In contrast, co-culture of MM cells with BM stroma decreased the mRNA expression of B lymphocyte-induced maturation protein 1 (BLIMP1) and spliced X box-binding protein 1 (XBP1s) (FIG. 3B, C, F, G), which are critical mediators of PC differentiation.
The BM niche regulates hematopoietic stem cell (HSC) differentiation by expressing the retinoid-inactivating enzyme CYP26. CYP26 enzymes were highly expressed in BM mesenchymal cells, while their expression was barely detectable in MM cells. Since retinoid signaling promotes PC differentiation and potentiates Ig secretion, it was determined whether stromal CYP26 is responsible for inducing a B cell phenotype in MM cells. To this end, co-culture conditions were treated with the CYP26 inhibitor R115866 (R115) or the CYP26-resistant RA receptor α-selective (RARα-selective) retinoid IRX5183 (IRX).

Kasumi-1 cells = assay: CFU experiments off and on stroma, Kasumi-1 cells; format: cell-based; settings: 10^−6 M ATRA, IRX5183, or 10^−7 M AM80
Source text: (§2) Data across three independent experiments.

[2] = tested on: Naive CD4+ CD25− FoxP3− cells; assay: Treg cell differentiation from naive T cells in vitro (FoxP3-GFP, flow cytometry); format: cell-based, mouse; settings: 10 nM
Protocol: To determine whether a RARα agonist could affect T cell differentiation, T cells were incubated with a RARα agonist to determine its effect on Foxp3 expression. Naive CD4^+ CD25^− FoxP3^− cells were purified from a Foxp3-GFP mouse using flow cytometry by sorting and isolating based upon a GFP^− phenotype. These cells were activated polyclonally with αCD3 in vitro in the presence of IL-2 and TGF-β. These cells were then cultured in media with various concentrations of compound IRX5183 (a RARα agonist) and the expression of FoxP3-GFP was analyzed by flow cytometry. The RARα agonist compound IRX5183 enhanced differentiation of immunosuppressive Treg cells and inhibited differentiation of inflammatory TH17 cells from naïve T cells in vitro (Table 2).

[3] = tested on: MM cell lines and MM CD138+ primary cells; assay: BTZ sensitivity of MM cells, clonogenic or cellular recovery, liquid or BM stroma; format: cell-based, human; settings: BM stroma with 1 μM test agent for 5 days, then BTZ 2.5 nM for 48 hr
Protocol: as §1
MM cells were separated from BM stromal cells by gently pipetting several times around the well. Detached cells were centrifuged, resuspended in fresh media, and incubated in a 24-well plate for 1 hr at 37° C. During this short incubation period, contaminating stromal cells attached to the well, while MM cells remained in suspension. MM cells were then recovered by gently pipetting. This protocol was used for qRT-PCR and CFU coculture experiments. The purity achieved using this protocol was confirmed by flow cytometry to be 98%-99% MM cells and less than 2% contaminating stroma.
After treatment, MM cells were collected, washed with PBS, and plated at a density of 5,000 cells/ml in 1 ml of 1.32% methylcellulose supplemented with 30% FBS, 10% BSA, L-glutamine, P/S, and 0.1 mM β-ME. Cells were plated in triplicate in 35-mm culture dishes, incubated at 37° C., and scored for the presence of colonies 14 days later.
To determine whether decreased retinoid signaling contributes to BTZ resistance within the BM niche, MM cell lines and MM CD138+ primary cells were incubated with BM stroma for 5 days, followed by BTZ treatment.
Strategies to overcome microenvironment-dependent chemoprotection have focused on mobilization of cancer cells from the BM niche into the peripheral circulation. It was analyzed whether the change in phenotype and subsequent BTZ resistance of MM cells were lost upon separation from the BM stroma, a process that mimics mobilization. To this end, H929 cells were separated from BM mesenchymal cells following a 5-day stroma co-culture, incubated in fresh media (RPMI with 10% FBS) for 0 to 48 hr, and then treated with BTZ. […] Thus, microenvironment-dependent BTZ resistance induced by the change in MM cell phenotype may not immediately be reversed by tumor mobilization.

NB4 cells = assay: CFU experiments off and on stroma, NB4 cells; format: cell-based; settings: 10^−7 M ATRA, IRX5183, or 10^−8 M AM80
Source text: as §2

CC1(C)CCC(C)(C)c2c1cc(C(=O)Nc1cc(F)c(C(=O)O)c(F)c1)c(O)c2Cl [IRX5183]
mRNA expression of BCL6, BLIMP1, XBP1s, CHOP markers ([1]; BM stroma co-cultures): restored all markers to levels comparable to those of liquid control conditions
expression of differentiation markers ([1]; liquid conditions (absence of stroma)): induced comparable changes, irrespective of the presence or absence of BM stroma
clonogenic growth (CFU) (Kasumi-1 cells): decrease in clonogenic growth compared to control
Treg cell Percent Differentiation (%) [2]: 90%
stroma-induced BTZ resistance [3]: overcome
clonogenic growth (CFU) (NB4 cells): decrease in clonogenic growth compared to control
